Reference: patent publication US20090131354A1, “miR-126 REGULATED GENES AND PATHWAYS AS TARGETS FOR THERAPEUTIC INTERVENTION” (priority 2007, published 2009)

Legend:
[1] = system: Du145 prostate cancer cells; test: Alamar Blue proliferation assay, Du145; type: cell-based, human; settings: 30 nM, normalized to negative control miRNA (100% proliferation)
From the text: The inventors assessed the therapeutic effect of hsa-miR-126 for prostate cancer by using 4 individual human prostate cancer cell lines. To measure cellular proliferation of prostate cancer cells, the following prostate cancer cell lines were used: PPC-1, derived from a bone metastasis; Du145, derived from a brain metastasis; RWPE2, derived from prostate cells immortalized by human papillomavirus 18 and transformed by the K-RAS oncogene; and LNCaP, derived from a lymph node metastasis (Stone et al., 1978; Horoszewicz et al., 1980; Brothman et al., 1991; Pretlow et al., 1993; Bello et al., 1997). PPC-1 and Du145 cells lack expression of the prostate-specific antigen (PSA) and are independent of androgen receptor (AR) signaling. In contrast, RWPE2 and LNCaP cells test positive for PSA and AR. Cells were transfected with synthetic hsa-miR-126 (Pre-miR™-hsa-miR-126, Ambion cat. no. AM 17100) or negative control miRNA (NC; Pre-miR™ microRNA Precursor Molecule-Negative Control #2; Ambion cat. no. AM17111) in a 96-well format using a lipid-based transfection reagent. […] Proliferation was assessed 4-7 days post-transfection using Alamar Blue™ (Invitrogen) following the manufacturer's instructions. […] Fluorescent light units (FLU) were measured after 3 hours, normalized to the control, and plotted as percent change in proliferation. […]

[2] = system: PPC-1 prostate cancer cells; test: Long-term growth curve with repeated electroporation, PPC-1; type: cell-based, human
From the text: To evaluate the therapeutic activity of hsa-miR-126 over an extended period of time, we conducted growth curve experiments in the presence of miRNA for up to 21 days. Since in vitro transfections of naked interfering RNAs, such as synthetic miRNA, are transient by nature and compromised by the dilution of the oligonucleotide during ongoing cell divisions, we administered miRNA at multiple time points (Bartlett and Davis, 2006; Bartlett and Davis, 2007). To accommodate miRNA delivery into a large quantity of cells, we employed the electroporation method to delivery hsa-miR-126 or negative control miRNA into PPC-1, PC3 and Du145 human prostate cancer cells. Briefly, 1×10^6 PPC-1 or PC3 cells, and 0.5×10^6 Du145 cells were electroporated with 1.6 μM hsa-miR-126 or negative control using the BioRad Gene Pulser Xcell™ instrument (BioRad Laboratories Inc., Hercules, Calif., USA), seeded and propagated in regular growth medium. Experiments with PC3 and Du145 cells were carried out in triplicates. When the control cells reached confluence (days 4 and 11 for PPC-1; days 7 and 14 for PC3 and Du145), cells were harvested, counted and electroporated again with the respective miRNAs. […] The population doubling was calculated from these electroporation events using the formula PD=ln(Nf/N0)/ln2, and cell counts were extrapolated and plotted on a linear scale (FIGS. 10-12). […]

[3] = system: lung cancer (A549, HTB-57) or cervical cancer (HeLa) cells; settings: A549, HTB-57, HeLa; miRNA given before the compound; cited from earlier work

hsa-miR-126 (UCGUACCGUGAGUAAUAAUGC; synthetic pre-miR form, further chemistry not given here) [Synthetic hsa-miR-126 (Pre-miR™-hsa-miR-126, Ambion cat. no. AM17100)]
% proliferation [1]: 63.41%
inhibition of cell growth ([2]; PPC-1, day 18, 1.6 μM repeated electroporation, relative to control cells (100%)): 91.3%
remaining cells ([2]; PPC-1, day 18, relative to control cells (100%)): 8.7%
effect on cell death induced by therapeutic compound (e.g., etoposide) [3]: increased the capacity of the therapeutic compound to induce death
